Experimental data taken from publication PMC10876487 (Synthetic and Systems Biotechnology, 2024).

Target: T1, ALDH-40 (Bacillus subtilis, UniProt P94358)
T1 sequence (P94358 1-485): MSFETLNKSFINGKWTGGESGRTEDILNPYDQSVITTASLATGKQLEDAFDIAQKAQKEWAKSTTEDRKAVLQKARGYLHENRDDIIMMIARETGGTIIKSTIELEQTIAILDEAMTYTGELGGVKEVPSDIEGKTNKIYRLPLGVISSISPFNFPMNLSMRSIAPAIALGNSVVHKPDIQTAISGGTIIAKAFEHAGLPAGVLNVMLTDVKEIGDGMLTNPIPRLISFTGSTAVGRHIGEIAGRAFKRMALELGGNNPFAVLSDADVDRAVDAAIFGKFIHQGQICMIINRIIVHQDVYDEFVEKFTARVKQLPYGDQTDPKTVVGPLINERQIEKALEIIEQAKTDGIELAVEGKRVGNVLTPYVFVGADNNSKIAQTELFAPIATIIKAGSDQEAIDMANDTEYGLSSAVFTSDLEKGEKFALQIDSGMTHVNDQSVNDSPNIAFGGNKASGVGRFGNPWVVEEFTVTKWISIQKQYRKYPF
Test: HPLC, Michaelis-Menten fit
Format: biochemical
Conditions: 0.5 μM enzyme, NAD+ 2 mM, 50 mM Tris-HCl pH 8.0, 30 °C

Question: How did the Km turn out when cinnamaldehyde [2a] was run?
Answer: The Km was 10 ± 2.7 mM.
